Laboratory results taken from ChEMBL document CHEMBL1201862, “PubChem BioAssay data set” (2004).
Activity calls are given as the source filed them.

Columns and labels:
[1] = molecular target: T1, Bcl-2-related protein A1 (Mus musculus, UniProt Q07440); assay type: functional;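 note: confirmatory dose–response counterscreen on Bfl-1, used to check hits from a UBC13 polyubiquitin inhibitor campaign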
T1 sequence (Q07440 whole entry): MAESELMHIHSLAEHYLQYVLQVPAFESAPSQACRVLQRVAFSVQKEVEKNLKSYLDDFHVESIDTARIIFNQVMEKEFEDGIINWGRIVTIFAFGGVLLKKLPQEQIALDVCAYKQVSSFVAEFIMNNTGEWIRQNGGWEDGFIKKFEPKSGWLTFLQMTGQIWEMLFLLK

[2] = molecular target: T2, Ubiquitin-conjugating enzyme E2 N (Homo sapiens, UniProt P61088); assay type: functional
T2 sequence (P61088 whole entry): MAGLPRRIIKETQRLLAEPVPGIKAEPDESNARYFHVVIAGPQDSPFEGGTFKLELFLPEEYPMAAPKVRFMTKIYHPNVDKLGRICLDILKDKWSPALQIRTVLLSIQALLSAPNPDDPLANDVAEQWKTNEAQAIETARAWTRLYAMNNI

[3] = molecular target: T2, Ubiquitin-conjugating enzyme E2 N; assay type: functional; remark: listed apart in the source
[4] = molecular target: T3, Cytochrome P450 2D6 (Homo sapiens, UniProt P10635);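 note: CYP2D6 member of a cytochrome P450 panel assay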
T3 sequence (P10635 whole entry, the tested form may be a part): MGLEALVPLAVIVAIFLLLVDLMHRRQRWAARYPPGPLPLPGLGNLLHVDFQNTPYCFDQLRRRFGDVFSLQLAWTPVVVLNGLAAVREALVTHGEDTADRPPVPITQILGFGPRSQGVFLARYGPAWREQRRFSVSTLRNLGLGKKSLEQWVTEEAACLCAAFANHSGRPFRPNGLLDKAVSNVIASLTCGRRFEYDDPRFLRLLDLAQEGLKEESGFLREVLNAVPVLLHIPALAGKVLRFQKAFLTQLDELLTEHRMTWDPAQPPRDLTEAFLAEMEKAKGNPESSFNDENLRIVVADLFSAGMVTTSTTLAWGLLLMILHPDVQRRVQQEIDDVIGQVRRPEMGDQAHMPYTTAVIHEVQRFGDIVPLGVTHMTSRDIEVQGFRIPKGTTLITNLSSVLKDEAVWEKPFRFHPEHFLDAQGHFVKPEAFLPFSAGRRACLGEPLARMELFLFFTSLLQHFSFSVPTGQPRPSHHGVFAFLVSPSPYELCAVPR

[5] = molecular target: T4, Carboxy-terminal domain RNA polymerase II polypeptide A small phosphatase 1 (Homo sapiens, UniProt Q9GZU7); assay: CTDSP1 inhibitors, concentration-response, biochemical, absorbance readout, ultra-high-throughput screen actives (AID 540297); assay type: functional
T4 sequence (Q9GZU7 whole entry): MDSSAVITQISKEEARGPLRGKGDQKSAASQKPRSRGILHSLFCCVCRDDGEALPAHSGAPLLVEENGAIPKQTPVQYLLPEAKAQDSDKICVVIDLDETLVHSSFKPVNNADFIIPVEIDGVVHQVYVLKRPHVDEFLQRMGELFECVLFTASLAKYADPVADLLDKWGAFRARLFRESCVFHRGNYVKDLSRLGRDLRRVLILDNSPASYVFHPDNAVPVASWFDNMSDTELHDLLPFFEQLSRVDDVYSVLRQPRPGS

[6] = tested on: Streptococcus sp. 'group A'; assay: Streptococcus pyogenes SK(-)GAS viability under kanamycin – luminescence, BacTiterGlo, confirmation, counter-screen for streptokinase expression inhibitor project, dose response (AID 1900); assay type: functional, organism-based
[7] = tested on: Streptococcus; assay: GAS UMAA2166 growth inhibition – luminescence, BacTiterGlo, counter-screen for streptokinase expression inhibitor project, dose response (AID 1915); assay type: functional, organism-based;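 note: potency for reduction of bacterial viability or growth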
[8] = THP-1 cell cytotoxicity, dose response, cytotoxicity control for non-replicating M. tuberculosis project (AID 489025); assay type: functional
[9] = Vero E6 cell cytotoxicity, dose response, cytotoxicity control for non-replicating M. tuberculosis project, secondary assay (AID 492998); assay type: functional, VeroE6; conditions: Vero C1008
[10] = cells; assay type: functional
[11] = molecular target: Cytochrome P450 2C19 (Homo sapiens, UniProt P33261); assay: Cytochrome panel assay with activity outcomes. Panel member name: p450-cyp2c19 Compounds with AC50 equal or less than 10 uM are considered active; assay type: functional; conditions: read-out: AC50
Sequence of Cytochrome P450 2C19 (P33261 whole entry): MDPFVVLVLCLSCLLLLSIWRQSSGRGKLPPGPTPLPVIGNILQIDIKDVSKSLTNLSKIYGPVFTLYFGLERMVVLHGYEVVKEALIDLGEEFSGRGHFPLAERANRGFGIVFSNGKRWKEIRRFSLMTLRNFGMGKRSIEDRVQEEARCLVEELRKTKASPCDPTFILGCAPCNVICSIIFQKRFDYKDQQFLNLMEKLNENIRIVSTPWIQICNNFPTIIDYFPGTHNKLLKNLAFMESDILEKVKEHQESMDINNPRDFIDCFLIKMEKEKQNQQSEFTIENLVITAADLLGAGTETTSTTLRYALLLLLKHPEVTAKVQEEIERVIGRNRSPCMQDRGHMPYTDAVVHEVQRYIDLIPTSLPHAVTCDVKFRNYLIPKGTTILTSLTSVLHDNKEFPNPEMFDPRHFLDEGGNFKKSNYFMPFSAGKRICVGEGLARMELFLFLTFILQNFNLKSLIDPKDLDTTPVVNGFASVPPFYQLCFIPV

[12] = molecular target: T5, Cytochrome P450 1A2 (Homo sapiens, UniProt P05177);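 note: PubChem cytochrome P450 panel assay, CYP1A2 panel member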
T5 sequence (P05177 whole entry): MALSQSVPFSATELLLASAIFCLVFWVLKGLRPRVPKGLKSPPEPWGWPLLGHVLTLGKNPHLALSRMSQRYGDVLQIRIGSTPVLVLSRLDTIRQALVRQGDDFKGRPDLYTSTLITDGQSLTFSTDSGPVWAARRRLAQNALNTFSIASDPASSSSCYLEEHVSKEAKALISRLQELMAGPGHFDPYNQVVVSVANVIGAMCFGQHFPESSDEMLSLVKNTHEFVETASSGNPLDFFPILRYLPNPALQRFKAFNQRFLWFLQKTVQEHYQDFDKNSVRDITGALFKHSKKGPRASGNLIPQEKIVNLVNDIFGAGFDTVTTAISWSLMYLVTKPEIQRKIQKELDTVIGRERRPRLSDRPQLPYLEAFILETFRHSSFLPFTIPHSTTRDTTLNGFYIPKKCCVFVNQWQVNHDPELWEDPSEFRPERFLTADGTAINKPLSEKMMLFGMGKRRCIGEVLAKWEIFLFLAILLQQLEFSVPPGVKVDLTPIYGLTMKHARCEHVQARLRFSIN

[13] = molecular target: Cytochrome P450 2C9 (Homo sapiens, UniProt P11712)
Sequence of Cytochrome P450 2C9 (P11712 whole entry): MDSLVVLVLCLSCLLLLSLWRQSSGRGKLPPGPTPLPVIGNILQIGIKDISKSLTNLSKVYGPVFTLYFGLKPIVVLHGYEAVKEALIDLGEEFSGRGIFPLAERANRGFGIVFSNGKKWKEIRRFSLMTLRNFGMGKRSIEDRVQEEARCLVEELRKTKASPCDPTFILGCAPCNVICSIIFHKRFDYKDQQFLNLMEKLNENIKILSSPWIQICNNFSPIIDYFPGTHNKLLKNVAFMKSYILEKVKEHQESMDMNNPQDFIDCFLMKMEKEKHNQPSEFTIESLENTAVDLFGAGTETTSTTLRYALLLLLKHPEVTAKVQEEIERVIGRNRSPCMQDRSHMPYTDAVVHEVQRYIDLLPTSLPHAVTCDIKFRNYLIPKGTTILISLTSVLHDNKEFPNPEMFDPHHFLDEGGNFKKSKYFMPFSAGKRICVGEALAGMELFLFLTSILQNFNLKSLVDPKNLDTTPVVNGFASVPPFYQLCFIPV

[14] = molecular target: T3, Cytochrome P450 2D6; remark: listed apart in the source
[15] = molecular target: Cytochrome P450 3A4 (Homo sapiens, UniProt P08684);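 note: CYP3A4 tested as one member of a cytochrome P450 panel screen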
Sequence of Cytochrome P450 3A4 (P08684 whole entry): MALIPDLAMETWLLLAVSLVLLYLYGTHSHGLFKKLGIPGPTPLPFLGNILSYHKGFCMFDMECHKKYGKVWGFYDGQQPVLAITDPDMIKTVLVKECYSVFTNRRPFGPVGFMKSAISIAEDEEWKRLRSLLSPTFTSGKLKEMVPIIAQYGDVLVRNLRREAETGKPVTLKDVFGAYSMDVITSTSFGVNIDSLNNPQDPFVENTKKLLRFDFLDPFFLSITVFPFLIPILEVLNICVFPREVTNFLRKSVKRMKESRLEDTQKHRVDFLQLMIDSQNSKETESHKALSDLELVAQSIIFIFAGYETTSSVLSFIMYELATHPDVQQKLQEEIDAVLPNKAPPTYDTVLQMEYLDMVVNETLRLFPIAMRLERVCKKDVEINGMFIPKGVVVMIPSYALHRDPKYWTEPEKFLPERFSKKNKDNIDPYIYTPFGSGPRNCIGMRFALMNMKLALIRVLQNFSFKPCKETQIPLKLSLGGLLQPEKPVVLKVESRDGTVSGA

[16] = molecular target: T6, Heat shock factor protein 1 (Mus musculus, UniProt P38532); assay: enhancement of HSF1-driven luciferase signal – cell-based, NIH3T3, luminescence, dose retest, confirmation (AID 435004); assay type: functional;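 note: stress induced by proteasome inhibitor MG132 added 30 min after compound; luciferase reporter driven by HSF1 response element in NIH3T3 cells; actives raise luminescence as potentiators of the MG132 stress response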
T6 sequence (P38532 whole entry): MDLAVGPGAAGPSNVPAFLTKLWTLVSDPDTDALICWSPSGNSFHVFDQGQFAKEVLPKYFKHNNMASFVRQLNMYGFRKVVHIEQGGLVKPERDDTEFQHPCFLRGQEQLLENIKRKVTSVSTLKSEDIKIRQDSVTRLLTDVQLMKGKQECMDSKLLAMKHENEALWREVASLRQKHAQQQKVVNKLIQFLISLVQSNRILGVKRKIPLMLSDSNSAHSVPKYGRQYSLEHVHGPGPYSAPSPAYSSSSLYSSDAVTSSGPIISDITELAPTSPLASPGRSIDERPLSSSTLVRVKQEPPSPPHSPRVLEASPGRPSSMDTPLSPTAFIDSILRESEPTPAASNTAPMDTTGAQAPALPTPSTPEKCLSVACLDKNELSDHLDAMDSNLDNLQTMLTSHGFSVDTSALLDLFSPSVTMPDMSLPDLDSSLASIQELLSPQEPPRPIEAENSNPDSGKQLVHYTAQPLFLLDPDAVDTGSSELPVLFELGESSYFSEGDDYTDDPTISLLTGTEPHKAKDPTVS

[17] = molecular target: Alkaline phosphatase, placental type (Homo sapiens, UniProt P05187); assay: human placental alkaline phosphatase inhibition – biochemical, luminescence, confirmation (AID 1512); assay type: functional
Sequence of Alkaline phosphatase, placental type (P05187 whole entry): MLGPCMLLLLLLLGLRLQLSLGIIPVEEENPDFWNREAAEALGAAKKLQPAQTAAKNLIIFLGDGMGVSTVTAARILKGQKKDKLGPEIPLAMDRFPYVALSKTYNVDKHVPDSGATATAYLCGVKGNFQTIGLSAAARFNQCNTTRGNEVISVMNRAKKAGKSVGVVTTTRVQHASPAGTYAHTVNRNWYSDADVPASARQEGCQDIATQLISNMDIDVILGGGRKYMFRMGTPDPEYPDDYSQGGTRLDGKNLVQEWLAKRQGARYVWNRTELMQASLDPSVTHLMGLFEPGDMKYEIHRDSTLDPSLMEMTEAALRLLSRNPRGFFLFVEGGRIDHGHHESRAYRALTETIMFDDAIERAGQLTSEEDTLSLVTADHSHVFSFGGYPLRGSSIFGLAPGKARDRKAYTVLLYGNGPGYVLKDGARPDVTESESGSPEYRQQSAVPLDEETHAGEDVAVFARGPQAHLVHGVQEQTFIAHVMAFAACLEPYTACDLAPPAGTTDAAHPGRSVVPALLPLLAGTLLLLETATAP

[18] = molecular target: T7, Alkaline phosphatase, tissue-nonspecific isozyme (Homo sapiens, UniProt P05186); assay: potency against alkaline phosphatase TNAP – biochemical, luminescent, dose response, SAR follow-up (AID 1056)
T7 sequence (P05186 whole entry): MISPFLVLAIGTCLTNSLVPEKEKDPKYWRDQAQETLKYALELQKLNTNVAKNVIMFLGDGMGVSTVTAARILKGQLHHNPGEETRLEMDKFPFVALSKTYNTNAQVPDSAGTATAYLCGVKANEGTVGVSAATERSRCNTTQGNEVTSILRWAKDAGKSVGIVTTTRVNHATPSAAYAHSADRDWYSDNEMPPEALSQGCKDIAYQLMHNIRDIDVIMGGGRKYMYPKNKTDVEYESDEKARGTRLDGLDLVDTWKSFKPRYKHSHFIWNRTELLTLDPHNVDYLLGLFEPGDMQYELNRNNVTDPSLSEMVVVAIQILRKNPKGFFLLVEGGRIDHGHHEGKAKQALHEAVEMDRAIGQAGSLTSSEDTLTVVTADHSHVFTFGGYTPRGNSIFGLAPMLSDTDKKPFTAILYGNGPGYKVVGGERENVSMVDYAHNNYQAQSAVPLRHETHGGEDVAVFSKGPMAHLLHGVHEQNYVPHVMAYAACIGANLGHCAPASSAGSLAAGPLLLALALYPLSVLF

[19] = tested on: P388/ADR; assay: cells; assay type: functional; conditions: Mus musculus
[20] = tested on: SN12K1; assay: cells; assay type: functional; conditions: Homo sapiens
[21] = tested on: P388; assay: cells; assay type: functional; conditions: Mus musculus
[22] = molecular target: Dual specificity tyrosine-phosphorylation-regulated kinase 1A (Rattus norvegicus, UniProt Q63470); assay type: biochemical, Homo sapiens

## CCC(C(=O)NC1CCCC1)N(C(=O)c1snc(C(N)=O)c1N)c1ccc2c(c1)OCCO2 (centres undefined)
[1]
  IC50: > 20 µM (inactive)
[2]
  IC50: 5.82 µM (active)
[3]
  IC50: 7.69 µM (active)

## C[C@H](Br)CN(C[C@H](C)Br)c1ccc2c(c1)Cc1ccccc1-2
[4]
  AC50: inconclusive

## COc1cc2c(cc1NC(=O)CSc1nc3ccccc3[nH]1)oc1ccccc12
[5]
  IC50: 17.1 µM (active)

## CCC(CC)c1nnc(NC(=O)c2ccc3ccccc3n2)s1
[6]
  EC50: 8.53 µM (active)
[7]
  EC50: 12.5 µM (active)
[8]
  CC50: > 40 µM (active)
[9]
  CC50: 18.4 µM (active)
[10]
  IC50: 0.42 µM (active)
[11]
  AC50: 28.2 µM (active)
[12]
  AC50: 2.51 µM (active)
[13]
  AC50: 7.94 µM (active)
[4]
  AC50: inactive

## COc1ccc(C(=O)N2CCC3(CC2)CCN(c2ncccn2)CC3)cc1
[14]
  AC50: 20 µM (inconclusive)
[15]
  AC50: inconclusive

## Cc1ccc(N(C(=O)c2snc(C(N)=O)c2N)C(C(=O)NC2CCCC2)c2ccco2)cc1 (centres undefined)
[1]
  IC50: > 20 µM (inactive)
[2]
  IC50: 13.3 µM (active)
[3]
  IC50: 8.18 µM (active)

## O=C1CN(C(=O)c2ccc(Br)o2)C(c2ccc(F)cc2)c2cc(Cl)ccc2N1 (centres undefined)
[16]
  EC50: > 260 µM (inactive)
[12]
  AC50: 0.0631 µM (inconclusive)
[15]
  AC50: inconclusive

## O/N=C/c1cc(Cl)ccc1OCc1cccc2ccccc12
[17]
  IC50: > 100 µM (inactive)
[18]
  IC50: > 100 µM (inactive)

## CC1C(=O)C(C)C(c2ccccc2)N(N=O)C1c1ccccc1 (centres undefined)
[19]
  GI50: > 100 µM (inactive)
[20]
  GI50: 42.8 µM (inactive)
[21]
  GI50: > 100 µM (inactive)

## CCCCN.N#C/C(=C\c1ccc(O)cc1)C(=O)O
[22]
  AC50: 3.24 µM (active)

## CC1=CCCC2C1(C)CCC(C)C2(C)Cc1cc(O)ccc1O (centres undefined)
[19]
  GI50: 1.63 µM (inactive)
[20]
  GI50: 4.2 µM (inactive)
[21]
  GI50: 1.37 µM (inactive)

## Cc1ccc(/C=N/NC(=O)c2cccs2)cc1[N+](=O)[O-]
[11]
  AC50: 31.6 µM (inconclusive)
[14]
  AC50: 0.0251 µM (inconclusive)
[15]
  AC50: inconclusive

## Cc1cnn(CC(=O)c2ccc(O)c(O)c2)c1
[17]
  IC50: 2.13 µM (active)
[18]
  IC50: > 100 µM (inactive)

## CN(C)CCN1C(=O)c2cccc3cc(N)cc(c23)C1=O [AMONAFIDE]
[19]
  GI50: 1.14 µM (inactive)
[20]
  GI50: 2.15 µM (inactive)
[21]
  GI50: 0.524 µM (active)
